Data on 19 molecules can be found in patent US20240228489A1, “POSITIVE ALLOSTERIC MODULATORS OF THE MUSCARINIC ACETYLCHOLINE RECEPTOR M1” (Vanderbilt University, priority 2021, published 2024).

The EC50 is the midpoint of the concentration-response curve. As a reminder, the Emax is the greatest response seen or fitted, relative to the assay's reference.

Test [1] addresses T1, human mAChR M1 (Homo sapiens, UniProt P11229).
T1 sequence (P11229 1-460): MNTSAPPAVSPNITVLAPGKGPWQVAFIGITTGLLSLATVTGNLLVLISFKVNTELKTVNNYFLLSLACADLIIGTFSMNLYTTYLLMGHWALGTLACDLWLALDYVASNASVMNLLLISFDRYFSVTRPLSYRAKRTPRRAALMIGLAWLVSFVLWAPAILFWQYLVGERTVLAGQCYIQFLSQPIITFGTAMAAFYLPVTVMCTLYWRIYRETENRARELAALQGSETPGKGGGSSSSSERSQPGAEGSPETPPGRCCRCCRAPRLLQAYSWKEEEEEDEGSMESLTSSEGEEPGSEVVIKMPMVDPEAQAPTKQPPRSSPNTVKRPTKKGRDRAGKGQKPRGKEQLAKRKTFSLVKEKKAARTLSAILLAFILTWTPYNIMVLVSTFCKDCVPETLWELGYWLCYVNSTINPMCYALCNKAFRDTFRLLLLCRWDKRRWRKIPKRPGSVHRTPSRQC
Briefly: mAChR M1 cell-based functional assay (calcium mobilization), agonist mode: compound alone, Emax relative to acetylcholine maximum. The following applies: for EC50 / Agonist Activity Human M1 EC50: human mAChR M1; for Emax: relative to the maximum for acetylcholine. A digest of the protocol: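 CHO-K1 cells stably expressing hM1 were loaded with Fluo-4 AM, and calcium flux was read as fluorescence ratio. Compound was added alone from an 11-point 1:3 curve, and the agonist response was fitted with a four-parameter logistic. Emax is expressed relative to the acetylcholine maximum.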

For test [2], the target named is T1, human mAChR M1. Briefly: mAChR M1 cell-based functional assay (calcium mobilization), PAM mode: increase in the EC20 acetylcholine response. A digest of the protocol:
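CHO-K1 cells stably expressing hM1, Fluo-4 loaded, read by FDSS calcium flux at 1 Hz. Compound (11-point 1:3 CRC) added at 4 s, EC20 acetylcholine at 144 s, EC80 at 230 s. PAM activity taken as concentration-dependent increase in EC20 ACh response, fitted by four-parameter logistic for EC50/Emax.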
On the technique in general: Calcium assays in cells follow changes in intracellular calcium, usually with a dye or a luminescent sensor.

Regarding `[2H]C1([2H])c2ncccc2C(=O)N1Cc1c(F)cc(-c2ccc(C(F)F)c3nn(C)cc23)cc1F` [Compound 123, 6-(4-(7-(difluoromethyl)-2-methyl-2H-indazol-4-yl)-2,6-difluorobenzyl)-6,7-dihydro-5H-pyrrolo[3,4-b]pyridin-5-one-7,7-d2], at human mAChR M1 [1], the EC50 is 7930 nM and the Emax was 11%. In addition, at human mAChR M1 [2], the EC50 stood at 490 nM and the Emax stood at 80%.

With `[2H]C1([2H])c2ncccc2C(=O)N1Cc1c(F)cc(-c2ccc(OC3CC3)c3nn(C)cc23)cc1F` [Compound 124, 6-(4-(7-cyclopropoxy-2-methyl-2H-indazol-4-yl)-2,6-difluorobenzyl)-6,7-dihydro-5H-pyrrolo[3,4-b]pyridin-5-one-7,7-d2], at human mAChR M1 [1], the concentration giving a half-maximal response (EC50) worked out at 8270 nM and the Emax came to 32%. In addition, at human mAChR M1 [2], the EC50 came to 243 nM and the Emax worked out at 74%.

`[2H]C1([2H])c2ncccc2C(=O)N1Cc1c(F)cc(-c2ccc(OC3CCC3)c3nn(C)cc23)cc1F` [Compound 125, 6-(4-(7-cyclobutoxy-2-methyl-2H-indazol-4-yl)-2,6-difluorobenzyl)-6,7-dihydro-5H-pyrrolo[3,4-b]pyridin-5-one-7,7-d2]: on human mAChR M1 [1], the EC50 was ≥ 10000 nM and the Emax amounted to 14%. Further, on human mAChR M1 [2], the EC50 stood at 382 nM and the Emax was 72%.

With `[2H]C1([2H])c2ncc(OCCc3ccccn3)cc2C(=O)N1Cc1c(F)cc(-c2cccc3nn(C([2H])([2H])[2H])cc23)cc1F` [Compound 126, 6-(2,6-difluoro-4-(2-(methyl-d3)-2H-indazol-4-yl)benzyl)-3-(2-(pyridin-2-yl)ethoxy)-6,7-dihydro-5H-pyrrolo[3,4-b]pyridin-5-one-7,7-d2], at human mAChR M1 [1], the EC50 is ≥ 10000 nM and the Emax was 14%. Besides, at human mAChR M1 [2], the EC50 came out at 423 nM and the maximal effect (Emax) is 65%.

In the case of `[2H]C1([2H])c2ncccc2C(=O)N1Cc1c(F)cc(-c2ccc(OC3CCOC3)c3nn(C)cc23)cc1F` (stereo not shown) [Compound 127, 6-(2,6-difluoro-4-(2-methyl-7-((tetrahydrofuran-3-yl)oxy)-2H-indazol-4-yl)benzyl)-6,7-dihydro-5H-pyrrolo[3,4-b]pyridin-5-one-7,7-d2], on human mAChR M1 [1], the EC50 worked out at 8400 nM and the maximal response (Emax) stood at 21%. For the same molecule, on human mAChR M1 [2], the EC50 was determined as 486 nM and the maximum response (Emax) was 65%.

Turning to `[2H]C1([2H])c2ncccc2C(=O)N1Cc1c(F)cc(-c2ccc(OC3CCOC3)c3nn(C([2H])([2H])[2H])cc23)cc1F` (stereo not shown) [Compound 128, 6-(2,6-difluoro-4-(2-(methyl-d3)-7-((tetrahydrofuran-3-yl)oxy)-2H-indazol-4-yl)benzyl)-6,7-dihydro-5H-pyrrolo[3,4-b]pyridin-5-one-7,7-d2], on human mAChR M1 [1], the EC50 amounted to 6070 nM and the Emax stood at 18%. For the same molecule, on human mAChR M1 [2], the EC50 worked out at 428 nM and the Emax turned out to be 63%.

Take `[2H]C1([2H])c2ncccc2C(=O)N1Cc1c(F)cc(-c2ccc(OCc3ccccc3)c3nn(C)cc23)cc1F` [Compound 129, 6-(4-(7-(benzyloxy)-2-methyl-2H-indazol-4-yl)-2,6-difluorobenzyl)-6,7-dihydro-5H-pyrrolo[3,4-b]pyridin-5-one-7,7-d2]: at human mAChR M1 [1], the “Agonist Activity Human M1 EC50” value was “Inactive” and the Emax was 1%. In addition, on human mAChR M1 [2], the EC50 stood at 1760 nM and the Emax worked out at 65%.

With `[2H]C1([2H])c2ncccc2C(=O)N1Cc1c(F)cc(-c2ccc(O)c3nn(C)cc23)cc1F` [Compound 130, 6-(2,6-Difluoro-4-(7-hydroxy-2-methyl-2H-indazol-4-yl)benzyl)-6,7-dihydro-5H-pyrrolo[3,4-b]pyridin-5-one-7,7-d2], on human mAChR M1 [1], the EC50 turned out to be 4560 nM and the Emax came out at 52%. Besides, on human mAChR M1 [2], the concentration for a half-maximal effect (EC50) came to 123 nM and the Emax was 82%.

For the molecule `[2H]C1([2H])c2ncccc2C(=O)N1Cc1c(F)cc(-c2ccc(OCCN(C)C)c3nn(C)cc23)cc1F` [Compound 131, 6-(4-(7-(2-(dimethylamino)ethoxy)-2-methyl-2H-indazol-4-yl)-2,6-difluorobenzyl)-6,7-dihydro-5H-pyrrolo[3,4-b]pyridin-5-one-7,7-d2], at human mAChR M1 [1], the “Agonist Activity Human M1 EC50” value is “Inactive” and the Emax worked out at 5%. Also, on human mAChR M1 [2], the EC50 was found to be 381 nM and the Emax came to 80%.

For `[2H]C1([2H])c2ncccc2C(=O)N1Cc1c(F)cc(-c2ccc(O)c3nn(C([2H])([2H])[2H])cc23)cc1F` [Compound 132, 6-(2,6-difluoro-4-(7-hydroxy-2-(methyl-d3)-2H-indazol-4-yl)benzyl)-6,7-dihydro-5H-pyrrolo[3,4-b]pyridin-5-one-7,7-d2], at human mAChR M1 [1], the concentration giving a half-maximal response (EC50) was 7930 nM and the Emax turned out to be 47%. Further, at human mAChR M1 [2], the EC50 turned out to be 195 nM and the Emax was found to be 77%.

`[2H]C1([2H])c2ncccc2C(=O)N1Cc1c(F)cc(-c2ccc(OC(C)COC)c3nn(C)cc23)cc1F` (stereo not shown) [Compound 133, 6-(2,6-difluoro-4-(7-((1-methoxypropan-2-yl)oxy)-2-methyl-2H-indazol-4-yl)benzyl)-6,7-dihydro-5H-pyrrolo[3,4-b]pyridin-5-one-7,7-d2]: on human mAChR M1 [1], the EC50 is ≥ 10000 nM and the Emax was determined as 35%. At human mAChR M1 [2], the EC50 turned out to be 486 nM and the Emax was found to be 79%.

Regarding `[2H]C1([2H])c2ncccc2C(=O)N1Cc1c(F)cc(-c2ccc(OCC3CCCO3)c3nn(C)cc23)cc1F` (stereo not shown) [Compound 134, 6-(2,6-difluoro-4-(2-methyl-7-((tetrahydrofuran-2-yl)methoxy)-2H-indazol-4-yl)benzyl)-6,7-dihydro-5H-pyrrolo[3,4-b]pyridin-5-one-7,7-d2], on human mAChR M1 [1], the concentration giving a half-maximal response (EC50) is ≥ 10000 nM and the Emax amounted to 23%. In addition, on human mAChR M1 [2], the EC50 is 701 nM and the maximal response (Emax) is 75%.

As to `[2H]C1([2H])c2ncccc2C(=O)N1Cc1c(F)cc(-c2ccc(OCC3CCO3)c3nn(C)cc23)cc1F` (stereo not shown) [Compound 135, 6-(2,6-difluoro-4-(2-methyl-7-(oxetan-2-ylmethoxy)-2H-indazol-4-yl)benzyl)-6,7-dihydro-5H-pyrrolo[3,4-b]pyridin-5-one-7,7-d2], the concentration giving a half-maximal response (EC50) at human mAChR M1 [1] worked out at 7520 nM; on human mAChR M1 [2] it was 405 nM. Besides, the Emax at human mAChR M1 [1] was 26%; on human mAChR M1 [2], 78%.

`[2H]C1([2H])c2ncccc2C(=O)N1Cc1c(F)cc(-c2ccc(O[C@H]3CCOC3)c3nn(C)cc23)cc1F` [Compound 136, (S)-6-(2,6-difluoro-4-(2-methyl-7-((tetrahydrofuran-3-yl)oxy)-2H-indazol-4-yl)benzyl)-6,7-dihydro-5H-pyrrolo[3,4-b]pyridin-5-one-7,7-d2]: at human mAChR M1 [1], the EC50 amounted to 8420 nM and the Emax amounted to 28%. Moreover, at human mAChR M1 [2], the EC50 is 245 nM and the maximal response (Emax) was determined as 74%.

Consider `[2H]C1([2H])c2ncccc2C(=O)N1Cc1c(F)cc(-c2ccc(O[C@@H]3CCOC3)c3nn(C)cc23)cc1F` [Compound 137, (R)-6-(2,6-difluoro-4-(2-methyl-7-((tetrahydrofuran-3-yl)oxy)-2H-indazol-4-yl)benzyl)-6,7-dihydro-5H-pyrrolo[3,4-b]pyridin-5-one-7,7-d2], for which, at human mAChR M1 [1], the EC50 was determined as 7920 nM and the maximal effect (Emax) is 53%. Also, on human mAChR M1 [2], the EC50 came to 256 nM and the Emax was 74%.

In the case of `[2H]C1([2H])c2ncccc2C(=O)N1Cc1c(F)cc(-c2ccc(OCC3CC3)c3nn(C)cc23)cc1F` [Compound 138, 6-(4-(7-(cyclopropylmethoxy)-2-methyl-2H-indazol-4-yl)-2,6-difluorobenzyl)-6,7-dihydro-5H-pyrrolo[3,4-b]pyridin-5-one-7,7-d2], on human mAChR M1 [1], the EC50 was ≥ 10000 nM and the Emax worked out at 11%. Further, at human mAChR M1 [2], the EC50 worked out at 837 nM and the Emax worked out at 75%.

For `[2H]C1([2H])c2ncccc2C(=O)N1Cc1c(F)cc(-c2ccc(OC3COC3)c3nn(C)cc23)cc1F` [Compound 139, 6-(2,6-difluoro-4-(2-methyl-7-(oxetan-3-yloxy)-2H-indazol-4-yl)benzyl)-6,7-dihydro-5H-pyrrolo[3,4-b]pyridin-5-one-7,7-d2], the EC50 is 5040 nM at human mAChR M1 [1] and 188 nM at human mAChR M1 [2]. Further, the Emax on human mAChR M1 [1] was 36%; on human mAChR M1 [2], 75%.

Take `[2H]C1([2H])c2ncccc2C(=O)N1Cc1c(F)cc(-c2ccc(OC3CCOCC3)c3nn(C)cc23)cc1F` [Compound 140, 6-(2,6-difluoro-4-(2-methyl-7-((tetrahydro-2H-pyran-4-yl)oxy)-2H-indazol-4-yl)benzyl)-6,7-dihydro-5H-pyrrolo[3,4-b]pyridin-5-one-7,7-d2]: the figures for the EC50 at human mAChR M1 [1] and at human mAChR M1 [2] were 8200 nM and 288 nM, respectively. In addition, the values for the Emax on human mAChR M1 [1] and on human mAChR M1 [2] were 54% and 72%, respectively.

For `[2H]C1([2H])c2ncc(O)cc2C(=O)N1Cc1c(F)cc(-c2cccc3nn(C([2H])([2H])[2H])cc23)cc1F` [Compound 141, 6-(2,6-difluoro-4-(2-(methyl-d3)-2H-indazol-4-yl)benzyl)-3-hydroxy-6,7-dihydro-5H-pyrrolo[3,4-b]pyridin-5-one-7,7-d2], the EC50 on human mAChR M1 [1] was 8020 nM; at human mAChR M1 [2] it was 122 nM. The Emax came out at 50% on human mAChR M1 [1] and 73% at human mAChR M1 [2].
